US12643903B2, “Bifunctional compounds for degradation of EGFR and related methods of use” (BeiGene, Ltd., priority 2020, dated 2026)

Experiments:
EGFR [1] = target: T1, EGFR (Homo sapiens, UniProt P00533, L858R/T790M); assay: Cell Degradation 1: EGFR degradation in H1975 cells, HTRF assay; type: cell-based; settings: 16 h treatment, EGFR degradation by HTRF
T1 construct: endogenous in cells; host or cells: H1975
Method: After 16 h treatment, add 100 μl 1×lysis buffer to each well; seal the plate and incubate 1 hour at room temperature on a plate shaker; Once the cells are lysed, 16 μL of cell lysate are transferred to a PE 384-well HTRF detection plate; 4 μL of pre-mixed HTRF antibodies are added to each well; Cover the plate with a plate sealer, spin 1000 rpm for 1 min, Incubate overnight at room temperature; Read on BMG PheraStar with HTRF protocol (337 nm-665 nm-620 nm).
(§1) The IC50 (DC50) value of a compound can be obtained by fitting the following equation Y=Bottom+(TOP−Bottom)/(1+((IC50/X)^hillslope))
(§2) Wherein, X and Y are known values, and IC50, Hillslope, Top and Bottom are the parameters obtained by fitting with software. Y is the inhibition percentage (calculated from the equation), X is the concentration of the compound; IC50 is the concentration of the compound when the 50% inhibition is reached. The smaller the IC50 value is, the stronger the inhibitory ability of the compound is. Vice versa, the higher the IC50 value is, the weaker the ability the inhibitory ability of the compound is; Hillslope represents the slope of the fitted curve, generally around 1*; Bottom represents the minimum value of the curve obtained by data fitting, which is generally 0%±20%; Top represents the maximum value of the curve obtained by data fitting, which is generally 100%±20%. The experimental data were fitted by calculating and analyzing with Dotmatics data analysis software.

EGFR [2] = target: T2, EGFR (Homo sapiens, UniProt P00533, DEL746-750); assay: Cell Degradation 2: EGFR degradation in HCC827 cells, HTRF assay; type: cell-based; settings: 16 h treatment, EGFR degradation by HTRF
T2 construct: endogenous in cells; host or cells: HCC827
T2 sequence (P00533 with tags, fused parts or gaps DEL746-750): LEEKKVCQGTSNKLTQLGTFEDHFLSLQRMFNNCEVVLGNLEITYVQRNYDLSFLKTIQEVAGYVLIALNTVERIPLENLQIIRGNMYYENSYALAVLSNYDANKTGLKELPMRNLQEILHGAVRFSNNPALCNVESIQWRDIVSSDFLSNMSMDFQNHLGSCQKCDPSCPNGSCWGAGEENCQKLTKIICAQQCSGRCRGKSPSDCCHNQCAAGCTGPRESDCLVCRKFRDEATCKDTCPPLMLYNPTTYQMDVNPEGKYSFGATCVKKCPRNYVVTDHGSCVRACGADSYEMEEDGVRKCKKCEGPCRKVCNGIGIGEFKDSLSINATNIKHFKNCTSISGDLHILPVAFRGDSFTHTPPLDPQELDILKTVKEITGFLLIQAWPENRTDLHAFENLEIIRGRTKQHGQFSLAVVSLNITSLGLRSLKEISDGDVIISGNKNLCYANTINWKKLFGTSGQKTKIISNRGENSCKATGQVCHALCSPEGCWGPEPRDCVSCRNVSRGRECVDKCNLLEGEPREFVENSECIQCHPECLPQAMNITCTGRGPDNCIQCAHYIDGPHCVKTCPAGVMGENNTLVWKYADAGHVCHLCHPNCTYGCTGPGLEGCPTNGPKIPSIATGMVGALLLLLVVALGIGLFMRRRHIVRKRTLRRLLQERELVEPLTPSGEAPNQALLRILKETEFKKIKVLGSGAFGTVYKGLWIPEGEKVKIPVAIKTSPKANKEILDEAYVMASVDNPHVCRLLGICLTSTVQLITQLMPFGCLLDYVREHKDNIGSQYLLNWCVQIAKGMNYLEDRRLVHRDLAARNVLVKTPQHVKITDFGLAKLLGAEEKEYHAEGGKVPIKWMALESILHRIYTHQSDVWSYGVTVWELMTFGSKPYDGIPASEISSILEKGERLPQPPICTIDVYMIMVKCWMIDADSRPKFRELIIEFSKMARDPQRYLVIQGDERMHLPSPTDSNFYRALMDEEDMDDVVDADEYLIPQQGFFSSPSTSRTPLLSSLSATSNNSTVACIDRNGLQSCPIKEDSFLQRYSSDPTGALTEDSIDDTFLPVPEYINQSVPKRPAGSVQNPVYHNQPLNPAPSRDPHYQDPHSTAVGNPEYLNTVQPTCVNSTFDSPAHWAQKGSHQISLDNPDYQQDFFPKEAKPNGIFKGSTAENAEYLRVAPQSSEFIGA
T2 sequence (Q96SW2 whole entry partner): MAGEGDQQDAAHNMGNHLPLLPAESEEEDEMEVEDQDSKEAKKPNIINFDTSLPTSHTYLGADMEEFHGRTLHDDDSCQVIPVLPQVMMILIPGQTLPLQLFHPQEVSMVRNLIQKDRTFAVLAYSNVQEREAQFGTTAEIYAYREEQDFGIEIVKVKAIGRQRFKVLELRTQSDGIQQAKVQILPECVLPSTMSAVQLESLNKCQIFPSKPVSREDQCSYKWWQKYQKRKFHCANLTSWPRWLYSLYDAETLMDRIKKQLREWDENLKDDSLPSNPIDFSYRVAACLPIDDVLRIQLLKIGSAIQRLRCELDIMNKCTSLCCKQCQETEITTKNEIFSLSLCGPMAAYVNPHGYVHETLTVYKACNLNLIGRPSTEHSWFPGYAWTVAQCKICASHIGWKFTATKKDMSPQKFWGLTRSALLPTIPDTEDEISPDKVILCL
Method: After 16 h treatment, add 100 μl 1×lysis buffer to each well; seal the plate and incubate 1 hour at room temperature on a plate shaker; Once the cells are lysed, 16 μl diluted (2 μL to 14 μl 1× lysisi buffer) cell lysate are transferred to a PE 384-well HTRF detection plate; 4 μL of pre-mixed HTRF antibodies are added to each well; Cover the plate with a plate sealer, spin 1000 rpm for 1 min, Incubate overnight at room temperature; Read on BMG PheraStar with HTRF protocol (337 nm-665 nm-620 nm).
as §1, §2

T1 sequence (P00533 25-1210 T790M/L858R): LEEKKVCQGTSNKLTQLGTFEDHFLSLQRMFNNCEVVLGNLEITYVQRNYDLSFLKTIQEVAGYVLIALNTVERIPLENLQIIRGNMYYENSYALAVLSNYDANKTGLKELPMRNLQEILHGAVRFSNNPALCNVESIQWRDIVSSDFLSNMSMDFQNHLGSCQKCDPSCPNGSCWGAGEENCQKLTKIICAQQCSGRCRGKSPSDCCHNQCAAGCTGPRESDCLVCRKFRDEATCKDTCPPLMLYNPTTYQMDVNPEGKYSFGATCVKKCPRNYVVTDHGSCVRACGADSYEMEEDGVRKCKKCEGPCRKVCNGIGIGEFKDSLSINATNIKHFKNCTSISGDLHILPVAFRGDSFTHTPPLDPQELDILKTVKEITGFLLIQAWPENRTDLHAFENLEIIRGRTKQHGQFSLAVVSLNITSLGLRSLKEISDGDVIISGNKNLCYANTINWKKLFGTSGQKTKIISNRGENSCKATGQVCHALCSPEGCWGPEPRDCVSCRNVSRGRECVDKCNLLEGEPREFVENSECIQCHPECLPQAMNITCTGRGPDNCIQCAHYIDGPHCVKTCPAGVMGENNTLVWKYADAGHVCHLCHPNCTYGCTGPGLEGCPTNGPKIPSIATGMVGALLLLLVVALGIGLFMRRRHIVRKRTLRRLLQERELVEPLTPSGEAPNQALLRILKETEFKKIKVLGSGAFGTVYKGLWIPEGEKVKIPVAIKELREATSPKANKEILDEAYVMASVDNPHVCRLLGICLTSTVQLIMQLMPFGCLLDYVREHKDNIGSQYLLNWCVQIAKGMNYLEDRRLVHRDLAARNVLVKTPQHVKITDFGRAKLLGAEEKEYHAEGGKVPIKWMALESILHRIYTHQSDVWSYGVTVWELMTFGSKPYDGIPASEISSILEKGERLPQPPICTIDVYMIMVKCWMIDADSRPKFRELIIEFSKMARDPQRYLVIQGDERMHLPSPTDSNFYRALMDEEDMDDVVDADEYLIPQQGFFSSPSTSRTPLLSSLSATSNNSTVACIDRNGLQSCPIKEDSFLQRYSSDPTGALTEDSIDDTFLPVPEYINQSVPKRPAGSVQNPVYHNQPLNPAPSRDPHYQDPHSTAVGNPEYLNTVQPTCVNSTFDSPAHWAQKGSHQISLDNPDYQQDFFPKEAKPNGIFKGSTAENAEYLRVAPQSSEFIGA

| Structure (SMILES) | DC50 (EGFR [1]) [nM] | DC50 (EGFR [2]) [nM] |
| --- | --- | --- |
| COc1cc(N2CCC(N3CCN(CCC4CN(c5ccc(C6CCC(=O)NC6=O)cc5)C4)CC3)CC2)ccc1Nc1ncc(Cl)c(Nc2cccc3c2N(S(C)(=O)=O)CC3)n1 (stereo not drawn) [Example 84, 3-(4-(3-(2-(4-(1-(4-((5-chloro-4-((1-(methylsulfonyl)indolin-7-yl)amino)pyrimidin-2-yl)amino)-3-methoxyphenyl)piperidin-4-yl)piperazin-1-yl)ethyl)azetidin-1-yl)phenyl)piperidine-2,6-dione] | > 10000 | 1980 |
| COc1cc(N2CCC(N3CCN(CC4CCN(c5ccc(C6CCC(=O)NC6=O)cc5)CC4)CC3)CC2)c(C)cc1Nc1ncc(Br)c(Nc2cccc3c2N(S(C)(=O)=O)CC3)n1 (stereo not drawn) [Example 40, 3-(4-(4-((4-(1-(4-((5-bromo-4-((1-(methylsulfonyl)indolin-7-yl)amino)pyrimidin-2-yl)amino)-5-methoxy-2-methylphenyl)piperidin-4-yl)piperazin-1-yl)methyl)piperidin-1-yl)phenyl)piperidine-2,6-dione] | 10.5 | 8.2 |
| CS(=O)(=O)N1CCc2cccc(Nc3nc(Nc4ccc(N5CCC(N6CCN(CCc7ccc(NC8CCC(=O)NC8=O)cc7)CC6)CC5)c(F)c4)nc4[nH]ccc34)c21 (stereo not drawn) [Example 66, 3-((4-(2-(4-(1-(2-fluoro-4-((4-((1-(methylsulfonyl)indolin-7-yl)amino)-7H-pyrrolo[2,3-d]pyrimidin-2-yl)amino)phenyl)piperidin-4-yl)piperazin-1-yl)ethyl)phenyl)amino)piperidine-2,6-dione] | 7.1 | 18 |
| CS(=O)(=O)N1CCc2cccc(Nc3nc(Nc4ccc(N5CCC(N6CCN(CCC7CCN(c8ccc9c(c8)C(=O)N(C8CCC(=O)NC8=O)C9=O)CC7)CC6)CC5)c5c4OCC5)ncc3Cl)c21 (stereo not drawn) [Example 52, 5-(4-(2-(4-(1-(7-((5-chloro-4-((1-(methylsulfonyl)indolin-7-yl)amino)pyrimidin-2-yl)amino)-2,3-dihydrobenzofuran-4-yl)piperidin-4-yl)piperazin-1-yl)ethyl)piperidin-1-yl)-2-(2,6-dioxopiperidin-3-yl)isoindoline-1,3-dione] | 7 | 3.5 |
| CS(=O)(=O)N1CCc2cccc(Nc3nc(Nc4ccc(N5CCN(CCC6CCN(c7ccc(C8CCC(=O)NC8=O)cc7)CC6)CC5)c(F)c4)nc4[nH]ccc34)c21 (stereo not drawn) [Example 27, 3-(4-(4-(2-(4-(2-fluoro-4-((4-((1-(methylsulfonyl)indolin-7-yl)amino)-7H-pyrrolo[2,3-d]pyrimidin-2-yl)amino)phenyl)piperazin-1-yl)ethyl)piperidin-1-yl)phenyl)piperidine-2,6-dione] | 10.6 | 33.6 |
| COc1cc(N2CCC(N3CCN(C(=O)C4CCN(CC5CCN(c6ccc7c(c6)C(=O)N(C6CCC(=O)NC6=O)C7=O)CC5)CC4)CC3)CC2)c(C)cc1Nc1ncc(Br)c(Nc2cccc3c2N(S(C)(=O)=O)CC3)n1 (stereo not drawn) [Example 43, 5-(4-((4-(4-(1-(4-((5-bromo-4-((1-(methylsulfonyl)indolin-7-yl)amino)pyrimidin-2-yl)amino)-5-methoxy-2-methylphenyl)piperidin-4-yl)piperazine-1-carbonyl)piperidin-1-yl)methyl)piperidin-1-yl)-2-(2,6-dioxopiperidin-3-yl)isoindoline-1,3-dione] | 49.1 | 11.1 |
| COc1cc(N2CCC(N3CCN(C(=O)CCN4CCN(c5ccc6c(c5)C(=O)N(C5CCC(=O)NC5=O)C6=O)CC4)CC3)CC2)c(C)cc1Nc1ncc(Br)c(Nc2cccc3c2N(S(C)(=O)=O)CC3)n1 (stereo not drawn) [Example 42, 5-(4-(3-(4-(1-(4-((5-bromo-4-((1-(methylsulfonyl)indolin-7-yl)amino)pyrimidin-2-yl)amino)-5-methoxy-2-methylphenyl)piperidin-4-yl)piperazin-1-yl)-3-oxopropyl)piperazin-1-yl)-2-(2,6-dioxopiperidin-3-yl)isoindoline-1,3-dione] | 13.5 | 4.9 |
| CS(=O)(=O)N1CCc2cccc(Nc3nc(Nc4ccc(N5CCC(N6CCN(CCOc7cccc(C8CCC(=O)NC8=O)c7)CC6)CC5)c(F)c4)nc4[nH]ccc34)c21 (stereo not drawn) [Example 5, 3-(3-(2-(4-(1-(2-fluoro-4-((4-((1-(methylsulfonyl)indolin-7-yl)amino)-7H-pyrrolo[2,3-d]pyrimidin-2-yl)amino)phenyl)piperidin-4-yl)piperazin-1-yl)ethoxy)phenyl)piperidine-2,6-dione] | 9 | 62.6 |
| CS(=O)(=O)N1CCc2cccc(Nc3nc(Nc4ccc(N5CCC(N6CCN(CCc7ccc(C8CCC(=O)NC8=O)cc7)CC6)CC5)c(F)c4)nc4[nH]ccc34)c21 (stereo not drawn) [Example 1, 3-(4-(2-(4-(1-(2-fluoro-4-((4-((1-(methylsulfonyl)indolin-7-yl)amino)-7H-pyrrolo[2,3-d]pyrimidin-2-yl)amino)phenyl)piperidin-4-yl)piperazin-1-yl)ethyl)phenyl)piperidine-2,6-dione] | 9.9 | 24.7 |
| CS(=O)(=O)N1CCc2cccc(Nc3nc(Nc4ccc(N5CCC(N6CCN(CC7CCN(c8ccc9c(c8)C(=O)N(C8CCC(=O)NC8=O)C9=O)CC7)CC6)CC5)c(F)c4)nc4[nH]ccc34)c21 (stereo not drawn) [Example 16, 2-(2,6-dioxopiperidin-3-yl)-5-(4-((4-(1-(2-fluoro-4-((4-((1-(methylsulfonyl)indolin-7-yl)amino)-7H-pyrrolo[2,3-d]pyrimidin-2-yl)amino)phenyl)piperidin-4-yl)piperazin-1-yl)methyl)piperidin-1-yl)isoindoline-1,3-dione] | 33.7 | 32.6 |
| COc1cc(Nc2nc(Nc3cccc4c3N(S(C)(=O)=O)CC4)c3cc[nH]c3n2)ccc1N1CCC(N2CCN(C(=O)[C@@H]3CCN(c4ccc5c(c4)C(=O)N(C4CCC(=O)NC4=O)C5=O)C3)CC2)CC1 (stereo partly drawn) [Example 75, 2-(2,6-dioxopiperidin-3-yl)-5-((R)-3-(4-(1-(2-methoxy-4-((4-((1-(methylsulfonyl)indolin-7-yl)amino)-7H-pyrrolo[2,3-d]pyrimidin-2-yl)amino)phenyl)piperidin-4-yl)piperazine-1-carbonyl)pyrrolidin-1-yl)isoindoline-1,3-dione] | 3.9 | > 10000 |
| CS(=O)(=O)N1CCc2cccc(Nc3nc(Nc4ccc(N5CCC(N6CCN(CC[C@H]7CCN(c8ccc(C9CCC(=O)NC9=O)cc8)C7)CC6)CC5)c(F)c4)nc4[nH]ccc34)c21 (stereo partly drawn) [Example 13, 3-(4-((S)-3-(2-(4-(1-(2-fluoro-4-((4-((1-(methylsulfonyl)indolin-7-yl)amino)-7H-pyrrolo[2,3-d]pyrimidin-2-yl)amino)phenyl)piperidin-4-yl)piperazin-1-yl)ethyl)pyrrolidin-1-yl)phenyl)piperidine-2,6-dione] | 11.1 | 29.3 |
| CS(=O)(=O)N1CCc2cccc(Nc3nc(Nc4ccc(N5CCC(N6CCN(CCC7CCN(c8ccc(C9CCC(=O)NC9=O)c(C#N)c8)CC7)CC6)CC5)c(F)c4)nc4[nH]ccc34)c21 (stereo not drawn) [Example 10, 2-(2,6-dioxopiperidin-3-yl)-5-(4-(2-(4-(1-(2-fluoro-4-((4-((1-(methylsulfonyl)indolin-7-yl)amino)-7H-pyrrolo[2,3-d]pyrimidin-2-yl)amino)phenyl)piperidin-4-yl)piperazin-1-yl)ethyl)piperidin-1-yl)benzonitrile] | 9.3 | > 10000 |
| CS(=O)(=O)N1CCc2cccc(Nc3nc(Nc4ccc(N5CCC(N6CCN(CCCC7CN(c8ccc9c(c8)C(=O)N(C8CCC(=O)NC8=O)C9=O)C7)CC6)CC5)c(F)c4)ncc3Cl)c21 (stereo not drawn) [Example 78, 5-(3-(3-(4-(1-(4-((5-chloro-4-((1-(methylsulfonyl)indolin-7-yl)amino)pyrimidin-2-yl)amino)-2-fluorophenyl)piperidin-4-yl)piperazin-1-yl)propyl)azetidin-1-yl)-2-(2,6-dioxopiperidin-3-yl)isoindoline-1,3-dione] | 5.5 | 4.6 |
| CS(=O)(=O)N1CCc2cccc(Nc3nc(Nc4ccc(N5CCC(N6CCN(CCC7CCN(c8ccc9c(c8)CN(C8CCC(=O)NC8=O)C9=O)CC7)CC6)CC5)c(F)c4)nc4[nH]ccc34)c21 (stereo not drawn) [Example 18, 3-(5-(4-(2-(4-(1-(2-fluoro-4-((4-((1-(methylsulfonyl)indolin-7-yl)amino)-7H-pyrrolo[2,3-d]pyrimidin-2-yl)amino)phenyl)piperidin-4-yl)piperazin-1-yl)ethyl)piperidin-1-yl)-1-oxoisoindolin-2-yl)piperidine-2,6-dione] | 14.1 | 10.8 |
